Measured values from patent US4518413A, “Poly-phosphorodiamide urease inhibitors and urease inhibited urea based fertilizer compositions” (Allied Corporation, priority 1983, dated 1985).

The compounds below were run on soil urease (assay: Efficacy test: inhibition of urease-catalysed urea hydrolysis in soil (urea remaining after incubation)). Conditions: New York soil (Cazenovia silt loam, pH 7.2); 800 micrograms test compound and 42.8 mg urea per 20 g air-dry soil; incubated at 25° C. for three days; run in triplicate.
Assay type: biochemical
Description: Efficacy tests were conducted to evaluate the efficacy of certain representative poly-phosphorodiamide compounds as urease inhibitors. The inhibition tests were run in a New York soil (Cazenovia silt loam, pH 7.2). Evaluations (run in triplicate) consisted of applying 800 micrograms of the test compound in 5 mL of water and 42.8 mg of urea in 1 mL of water to 20 g of air-dry soil in a glass bottle. The bottle was capped with perforated aluminum foil and incubated at 25° C. for three days prior to extraction with 100 mL of a 2M KCl solution containing 0.5 mg of phenylmercuric acetate. The extracts were then analyzed for remaining urea using an autoanalyzer. Percent inhibition was calculated as [formula] where A is urea recovered from unincubated sample (urea added to soil and immediately extracted); B is urea recovered from inhibited sample; and C is urea recovered from the control (uninhibited sample).
For `CC(C)(c1ccc(OP(N)(N)=O)cc1)c1ccc(OP(N)(N)=O)cc1` [Phosphorodiamidic Acid (1-Methylethylidene)-di-4,1-PhenyleneEster], the “% Inhibition” value was 70%.
In the case of `NP(N)(=O)Oc1cccc(OP(N)(N)=O)c1` [Phosphorodiamidic Acid 1,3-Phenylene Ester], the “% Inhibition” value is reported as 81%.
`NP(N)(=O)NCCCCCCNP(N)(N)=O` [N,N'-Bis-(diaminophosphinyl)-1,6-diaminohexane] was tested, and the “% Inhibition” value was 86%.
For `NP(N)(=O)N1CCN(P(N)(N)=O)CC1` [N,N'Bis-diaminophosphinyl-piperazine, N,N'-Bis-(diaminophosphinyl)piperazine], the “% Inhibition” value was 76%.
For `CC1(NP(N)(N)=O)CCC(C(C)(C)NP(N)(N)=O)CC1` (stereo not drawn) [N,N'-Bis-(diaminophosphinyl)-1,8-diamino-p-menthane], the “% Inhibition” value was 84%.
For `NP(N)(=O)Oc1ccc(OP(N)(N)=O)cc1` [Phosphorodiamidic Acid 1,4-Phenylene Ester], the “% Inhibition” value was 90%.
